Data published in patent US8431593B2, “Heteroaryl amide derivatives” (H. Lundbeck A/S, priority 2006, dated 2013).

Target: T1, P2X7 receptor (Homo sapiens, UniProt Q99572)
T1 construct: host or cells: SH-SY5Y
T1 sequence (Q99572 1-595): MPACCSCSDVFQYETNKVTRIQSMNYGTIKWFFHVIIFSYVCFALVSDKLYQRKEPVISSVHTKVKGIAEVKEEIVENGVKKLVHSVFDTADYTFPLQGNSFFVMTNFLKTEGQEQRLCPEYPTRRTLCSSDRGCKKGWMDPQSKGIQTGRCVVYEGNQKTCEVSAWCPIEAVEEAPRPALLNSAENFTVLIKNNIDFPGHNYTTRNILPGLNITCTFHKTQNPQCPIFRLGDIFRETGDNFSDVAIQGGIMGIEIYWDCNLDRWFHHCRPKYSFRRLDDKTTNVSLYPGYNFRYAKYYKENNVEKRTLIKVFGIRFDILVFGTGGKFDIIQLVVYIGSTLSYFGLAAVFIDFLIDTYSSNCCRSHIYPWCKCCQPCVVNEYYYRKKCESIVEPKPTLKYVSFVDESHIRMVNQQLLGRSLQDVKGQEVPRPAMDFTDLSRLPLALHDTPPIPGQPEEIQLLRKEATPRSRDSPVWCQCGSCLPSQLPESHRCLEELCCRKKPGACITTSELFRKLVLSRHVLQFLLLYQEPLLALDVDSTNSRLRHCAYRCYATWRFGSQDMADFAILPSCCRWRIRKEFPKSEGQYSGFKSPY
Experiment: P2X7 calcium mobilization assay, high throughput, antagonist activity (Example 4A)
Format: cell-based
Conditions: 50% decrease in the fluorescence response of cells exposed to 80 μM of 2′(3′)-O-(4-benzoyl-benzoyl)adenosine 5′-triphosphate; determined as in Example 4A; read-out: IC50
In short: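 Antagonism was measured as calcium fluorescence (FLIPR Tetra) in cells seeded one day earlier at 100,000/well, loaded with dye for 1 h and exposed to compound for 1 h at room temperature before agonist. Peak RFU, minus the no-agonist background, was referenced to the mean of the agonist wells.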

IC50, < 2 µM:
O=C(O)CCc1cn2c(C(=O)NCC3(c4ccc(C(F)(F)F)cc4)CCCCC3)cccc2n1 [Compound 941, 3-{5-[({1-[4-(trifluoromethyl)phenyl]cyclohexyl}methyl)carbamoyl]imidazo [1,2-a]pyridin-2-yl}propanoic acid]
CC(C)CC(CNC(=O)c1cccc2nc(CN3CC[C@@H](O)C3)cn12)c1ccc(Cl)cc1 (stereo partly drawn) [Compound 942, N-[2-(4-chlorophenyl)-4-methylpentyl]-2-{[(3R)-3-hydroxypyrrolidin-1-yl]methyl} imidazo[1,2-a]pyridine-5-carboxamide]
CC(C)CC(CNC(=O)c1cccc2nc(CN(C)CCO)cn12)c1ccc(Cl)cc1 (centres unmarked) [Compound 943, N-[2-(4-chlorophenyl)-4-methylpentyl]-2-{[(2-hydroxyethyl)(methyl)amino]methyl}imidazo [1,2-a]pyridine-5-carboxamide]
CCOC(=O)C1(c2cn3c(C(=O)NCC45CC6CC(CC(C6)C4)C5)cccc3n2)CCOCC1 [Compound 944, ethyl 4-{5-[(adamantan-1-ylmethyl)carbamoyl]imidazo[1,2-a]pyridin-2-yl}tetrahydro-2H-pyran-4-carboxylate]
O=C(NCC12CC3CC(CC(C3)C1)C2)c1cccc2nc(C3(C(=O)O)CCOCC3)cn12 [Compound 945, 4-{5-[(adamantan-1-ylmethyl)carbamoyl]imidazo[1,2-a]pyridin-2-yl}tetrahydro-2H-pyran-4-carboxylic acid]
CC(C)CC(CNC(=O)c1cccc2nc(CC(=O)N3CCC[C@@H](N)C3)cn12)c1cccnc1 (stereo partly drawn) [Compound 946, 2-{2-[(3R)-3-aminopiperidin-1-yl]-2-oxoethyl}-N-(4-methyl-2-pyridin-3-ylpentyl) imidazo[1,2-a]pyridine-5-carboxamide]
N[C@@H]1CCCN(C(=O)Cc2cn3c(C(=O)NCC4(c5cccnc5)CCCCC4)cccc3n2)C1 [Compound 947, 2-{2-[(3R)-3-aminopiperidin-1-yl]-2-oxoethyl}-N-[(1-pyridin-3-ylcyclohexyl)methyl] imidazo[1,2-a] pyridine-5-carboxamide]
Cc1ccc(C2(CNC(=O)c3cccc4nc(CC(=O)N5CCC[C@@H](N)C5)cn34)CCCCC2)cn1 [Compound 948, 2-{2-[(3R)-3-amino-piperidin-1-yl]-2-oxoethyl}-N-{[1-(6-methylpyridin-3-yl)cyclohexyl]methyl} imidazo[1,2-a] pyridine-5-carboxamide]
O=C(O)Cc1cn2c(C(=O)NCC3(c4ccc(Cl)cc4)CCCCC3)cccc2n1 [Compound 949, [5-({[1-(4-chlorophenyl)cyclohexyl]methyl}carbamoyl)imidazo[1,2-a]pyridin-2-yl]acetic acid]
COc1ccc(C2(CNC(=O)c3cccc4nc(CC(=O)N[C@@H]5CCN(C(=O)OC(C)(C)C)C5)cn34)CCCCC2)cc1 [Compound 950, tert-butyl (3R)-3-({[5-({[1-(4-methoxyphenyl)cyclohexyl]methyl}carbamoyl)imidazo [1,2-a]pyridin-2-yl]acetyl}amino) pyrrolidine-1-carboxylate]
CCCC(CNC(=O)c1cccc2nc(CC(=O)N[C@@H]3CCNC3)cn12)c1ccc(Cl)cc1 (stereo partly drawn) [Compound 951, N-[2-(4-chlorophenyl)pentyl]-2-{2-oxo-2-[(3R)-pyrrolidin-3-ylamino]ethyl} imidazo[1,2-a] pyridine-5-carboxamide]
COc1ccc(C2(CNC(=O)c3cccc4nc(CC(=O)N[C@@H]5CCNC5)cn34)CCCCC2)cc1 [Compound 952, N-{[1-(4-methoxyphenyl)cyclohexyl]methyl}-2-{2-oxo-2-[(3R)-pyrrolidin-3-ylamino]ethyl}imidazo[1,2-a]pyridine-5-carboxamide]
O=C(NCC12CC3CC(CC(C3)C1)C2)c1cccc2nc([C@H]3CC[C@@H](C(=O)O)CC3)cn12 [Compound 954, cis-4-{5-[(adamantan-1-ylmethyl)carbamoyl]imidazo[1,2-a]pyridin-2-yl} cyclohexane-carboxylic acid]
NC(=O)c1cccc(NC(=O)Cc2cn3c(C(=O)NCC4CCCCCC4)cccc3n2)c1 [Compound 955, 2-{2-[(3-carbamoylphenyl)amino]-2-oxoethyl}-N-(cycloheptylmethyl) imidazo[1,2-a] pyridine-5-carboxamide]
CNC(=O)c1ccc(NC(=O)Cc2cn3c(C(=O)NCC4CCCCCC4)cccc3n2)cc1 [Compound 957, N-(cycloheptylmethyl)-2-(2-{[4-(methylcarbamoyl)phenyl]amino}-2-oxoethyl) imidazo[1,2-a] pyridine-5-carboxamide]
NC(=O)COc1cccc(NC(=O)Cc2cn3c(C(=O)NCC4CCCCCC4)cccc3n2)c1 [Compound 958, 2-(2-{[3-(2-amino-2-oxoethoxy)phenyl]amino}-2-oxoethyl)-N-(cycloheptylmethyl) imidazo[1,2-a] pyridine-5-carboxamide]
CC(C)CC(CNC(=O)c1cccc2nc(CC(=O)N[C@@H]3CCNC3)cn12)c1ccc(Cl)cc1 (stereo partly drawn) [Compound 960, N-[2-(4-chlorophenyl)-4-methylpentyl]-2-{2-oxo-2-[(3R)-pyrrolidin-3-ylamino]ethyl} imidazo[1,2-a] pyridine-5-carboxamide]
O=C(Cc1cn2c(C(=O)NCC3(c4ccc(Cl)cc4)CCCCC3)cccc2n1)N[C@@H]1CCNC1 [Compound 961, N-{[1-(4-chlorophenyl)cyclohexyl]methyl}-2-{2-oxo-2-[(3R)-pyrrolidin-3-ylamino]ethyl} imidazo [1,2-a]pyridine-5-carboxamide]
O=C(O)Cc1cn2c(C(=O)NCC3(c4ccc(C(F)(F)F)cc4)CCCCC3)cccc2n1 [Compound 963, {5-[({1-[4-(trifluoromethyl)phenyl]cyclohexyl}methyl)carbamoyl]imidazo[1,2-a]pyridin-2-yl}acetic acid]
CC(C)CC(CNC(=O)c1cccc2nc(CC(=O)O)cn12)c1ccc(Cl)cc1 (centres unmarked) [Compound 964, (5-{[2-(4-chlorophenyl)-4-methylpentyl]carbamoyl}imidazo[1,2-a]pyridin-2-yl) acetic acid]
CC(C)CC(CNC(=O)c1cccc2nc(CC(=O)O)cn12)c1ccc(C(F)(F)F)cc1 (centres unmarked) [Compound 965, [5-({4-methyl-2-[4-(trifluoromethyl)phenyl]pentyl}carbamoyl)imidazo[1,2-a]pyridin-2-yl] acetic acid]
CCCCCCCC(CNC(=O)c1cccc2nc(CC(=O)O)cn12)c1ccccc1 (centres unmarked) [Compound 966, {5-[(2-phenylnonyl)carbamoyl]imidazo[1,2-a]pyridin-2-yl} acetic acid]
CC(C)CC(CNC(=O)c1cccc2nc(CC(=O)N[C@@H]3CCN(C(=O)OC(C)(C)C)C3)cn12)c1ccc(Cl)cc1 (some centres unmarked) [Compound 967, tert-butyl 3-{[(5-{[2-(4-chlorophenyl)-4-methylpentyl]carbamoyl}imidazo[1,2-a]pyridin-2-yl)acetyl]amino} pyrrolidine-1-carboxylate]
CC(C)(C)OC(=O)N1CC[C@@H](NC(=O)Cc2cn3c(C(=O)NCC4(c5ccc(Cl)cc5)CCCCC4)cccc3n2)C1 [Compound 968, tert-butyl (3R)-3-({[5-({[1-(4-chlorophenyl)cyclohexyl]methyl}carbamoyl)imidazo[1,2-a]pyridin-2-yl]acetyl}amino) pyrrolidine-1-carboxylate]
CC(C)CC(CNC(=O)c1cccc2nc(C3CCC(C(=O)O)CC3)cn12)c1ccc(Cl)cc1 (centres unmarked) [Compound 969, 4-(5-{[2-(4-chlorophenyl)-4-methylpentyl]carbamoyl}imidazo[1,2-a]pyridin-2-yl)cyclohexane-carboxylic acid]
O=C(Cc1cn2c(C(=O)NCCc3ccccc3)cccc2n1)NCC12CC3CC(CC(C3)C1)C2 [Compound 972, 2-{2-[(adamantan-1-ylmethyl)amino]-2-oxoethyl}-N-(2-phenylethyl)imidazo[1,2-a]pyridine-5-carboxamide]
O=C(Cc1cn2c(C(=O)NC3CCCCC3)cccc2n1)NCC12CC3CC(CC(C3)C1)C2 [Compound 973, 2-{2-[(adamantan-1-ylmethyl)amino]-2-oxoethyl}-N-cyclohexylimidazo[1,2-a]pyridine-5-carboxamide]
CC(C)CC(CNC(=O)Cc1cn2c(C(=O)NC3CCCCC3)cccc2n1)c1ccc(Cl)cc1 (centres unmarked) [Compound 975, 2-(2-{[2-(4-chlorophenyl)-4-methylpentyl]amino}-2-oxoethyl)-N-cyclohexylimidazo [1,2-a]pyridine-5-carboxamide]
O=C(Cc1cn2c(C(=O)NCC3CCCCC3)cccc2n1)NCC1(c2ccc(Cl)cc2)CCCCC1 [Compound 978, 2-[2-({[1-(4-chlorophenyl)cyclohexyl]methyl}amino)-2-oxoethyl]-N-(cyclohexylmethyl) imidazo[1,2-a] pyridine-5-carboxamide]
